# Data from patent publication US12286442B2, “Methods and materials for increasing transcription factor eb polypeptide levels” (University of Pittsburgh—Of the Commonwealth System of …, priority 2019, dated 2025).
# Tested on: BEAS-2B cells
# Assay: Toxicity: compound concentration needed to induce greater than 50 percent of cell loss
# Type: cell-based, human
# Settings: 18 hours incubation
# Method in brief: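 Reported value is the concentration giving greater than 50 percent cell loss, grouped into bins (≥25 μM; between 1 and 25 μM; ≤1 μM as "+++"). Measured by high-content imaging of DAPI-stained BEAS-2B TFEB-EGFP cells fixed after 18 h compound exposure.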
row,SMILES,toxicity (compound concentration needed to induce greater than 50 percent of cell loss)
1,Fc1cccc2c(Nc3cc(F)c4[nH]ccc4c3)nc(-c3ccncc3)nc12 [Compound 158],+ (cell loss of greater than 50 percent at a concentration that equals or is greater than 25 μM was represented as)
2,c1ccc2c(Nc3ccc4ncsc4c3)nc(-c3cncs3)nc2c1 [Compound 107],+ (cell loss of greater than 50 percent at a concentration that equals or is greater than 25 μM was represented as)
3,CC(C)c1nc2ccc(Nc3nc(-c4ccncc4)cc4ncccc34)cc2s1 [Compound 240],+ (cell loss of greater than 50 percent at a concentration that equals or is greater than 25 μM was represented as)
4,Oc1ccc(-c2nc(Nc3ccc4[nH]ccc4c3)c3ccccc3n2)cc1 [Compound 63],+ (cell loss of greater than 50 percent at a concentration that equals or is greater than 25 μM was represented as)
5,CC(C)c1nc2ccc(Nc3nc(-c4ccncc4)nc4c(F)cccc34)cc2s1 [Compound 367],+ (cell loss of greater than 50 percent at a concentration that equals or is greater than 25 μM was represented as)
6,Cc1cccc2c(Nc3ccc4nc(C5CC5)sc4c3)nc(-c3ccncc3)nc12 [Compound 379],+ (cell loss of greater than 50 percent at a concentration that equals or is greater than 25 μM was represented as)
7,Cc1ccc2nc(-c3ccncc3)nc(Nc3ccc4nc(C(C)C)sc4c3)c2c1 [Compound 154],+ (cell loss of greater than 50 percent at a concentration that equals or is greater than 25 μM was represented as)
8,Cc1nc2ccc(Nc3nc(-c4ccncc4)nc4ccccc34)cc2s1 [Compound 192],+ (cell loss of greater than 50 percent at a concentration that equals or is greater than 25 μM was represented as)
9,O=[N+]([O-])c1ccc(-c2nc(Nc3cccc(F)c3)c3ccccc3n2)cc1 [Compound 9],+ (cell loss of greater than 50 percent at a concentration that equals or is greater than 25 μM was represented as)
10,c1ccc(CCNc2nc(-c3ccncc3)nc3ccccc23)nc1 [Compound 171],+ (cell loss of greater than 50 percent at a concentration that equals or is greater than 25 μM was represented as)
11,c1cnc2nc(-c3ccncc3)nc(Nc3ccc4cn[nH]c4c3)c2c1 [Compound 135],+ (cell loss of greater than 50 percent at a concentration that equals or is greater than 25 μM was represented as)
12,O=C1NC(=O)c2cc(Nc3nc(-c4ccncc4)nc4ccccc34)ccc21 [Compound 33],+ (cell loss of greater than 50 percent at a concentration that equals or is greater than 25 μM was represented as)
13,Cc1c(-c2ccncc2)nc(Nc2ccc3nc(C4CC4)sc3c2)c2cccnc12 [Compound 333],+ (cell loss of greater than 50 percent at a concentration that equals or is greater than 25 μM was represented as)
14,Fc1ccc(Nc2nc(-c3ccncc3)nc3ccccc23)cc1 [Compound 181],+ (cell loss of greater than 50 percent at a concentration that equals or is greater than 25 μM was represented as)
15,Fc1cc(Nc2nc(-c3ccncc3)nc3ccccc23)cc2cc[nH]c12 [Compound 71],+ (cell loss of greater than 50 percent at a concentration that equals or is greater than 25 μM was represented as)
16,c1cc(-c2cc3cnccc3c(Nc3ccc4nc(C5CC5)sc4c3)n2)ccn1 [Compound 398],+ (cell loss of greater than 50 percent at a concentration that equals or is greater than 25 μM was represented as)
17,O=C1Cc2cc(Nc3nc(-c4ccncc4)nc4ccccc34)ccc2N1 [Compound 40],+ (cell loss of greater than 50 percent at a concentration that equals or is greater than 25 μM was represented as)
18,CC(C)c1nc2ccc(Nc3nc(-c4ccncc4)nc4ncccc34)cc2s1 [Compound 130],+ (cell loss of greater than 50 percent at a concentration that equals or is greater than 25 μM was represented as)
19,CC(C)(C)c1cc2cc(Nc3nc(-c4ccncc4)nc4ccncc34)ccc2[nH]1 [Compound 124],+ (cell loss of greater than 50 percent at a concentration that equals or is greater than 25 μM was represented as)
20,COc1ccc(NC(=O)Cn2c(=O)n(-c3ccc(C)cc3)c(=O)c3ccccc32)cc1 [Compound 220],+ (cell loss of greater than 50 percent at a concentration that equals or is greater than 25 μM was represented as)
21,Fc1ccc(Nc2nc(-c3cccnc3)nc3ccccc23)cc1F [Compound 196],+ (cell loss of greater than 50 percent at a concentration that equals or is greater than 25 μM was represented as)
22,c1cc(-c2nc(Nc3ccc4c(c3)OCO4)c3cnccc3n2)ccn1 [Compound 123],+ (cell loss of greater than 50 percent at a concentration that equals or is greater than 25 μM was represented as)

# Tested on: TFEB
# Assay: High content screen measuring TFEB nuclear accumulation (TFEB nuclear/cytosol ratio) in BEAS-2B cells stably expressing TFEB-EGFP
# Type: cell-based, human
# Settings: 18 hours incubation
# Method in brief: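 Readout: lowest compound concentration giving a 25% rise in nuclear/cytosol TFEB-GFP ratio, from DAPI-masked nuclear and mask-expanded cytosolic signals. Cells (BEAS-2B, TFEB-EGFP stable, ~2300–2500/well) rested 8 hours, then treated 18 hours with compound serial dilutions in 2% FBS medium before PFA fixation and DAPI staining.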
row,SMILES,efficacy (minimal compound concentration needed to increase TFEB nuclear/cytosol ratio by 25%)
1,Fc1cccc2c(Nc3cc(F)c4[nH]ccc4c3)nc(-c3ccncc3)nc12 [Compound 158],+++ (“+++” equals ≤1 μM)
2,c1ccc2c(Nc3ccc4ncsc4c3)nc(-c3cncs3)nc2c1 [Compound 107],+ (“+” equals >25 μM)
3,CC(C)c1nc2ccc(Nc3nc(-c4ccncc4)cc4ncccc34)cc2s1 [Compound 240],+++ (“+++” equals ≤1 μM)
4,Oc1ccc(-c2nc(Nc3ccc4[nH]ccc4c3)c3ccccc3n2)cc1 [Compound 63],+ (“+” equals >25 μM)
5,CC(C)c1nc2ccc(Nc3nc(-c4ccncc4)nc4c(F)cccc34)cc2s1 [Compound 367],++ (“++” equals between ≤25 μM and >1 μM)
6,Cc1cccc2c(Nc3ccc4nc(C5CC5)sc4c3)nc(-c3ccncc3)nc12 [Compound 379],+++ (“+++” equals ≤1 μM)
7,Cc1ccc2nc(-c3ccncc3)nc(Nc3ccc4nc(C(C)C)sc4c3)c2c1 [Compound 154],+++ (“+++” equals ≤1 μM)
8,Cc1nc2ccc(Nc3nc(-c4ccncc4)nc4ccccc34)cc2s1 [Compound 192],+++ (“+++” equals ≤1 μM)
9,O=[N+]([O-])c1ccc(-c2nc(Nc3cccc(F)c3)c3ccccc3n2)cc1 [Compound 9],+ (“+” equals >25 μM)
10,c1ccc(CCNc2nc(-c3ccncc3)nc3ccccc23)nc1 [Compound 171],+ (“+” equals >25 μM)
11,c1cnc2nc(-c3ccncc3)nc(Nc3ccc4cn[nH]c4c3)c2c1 [Compound 135],++ (“++” equals between ≤25 μM and >1 μM)
12,O=C1NC(=O)c2cc(Nc3nc(-c4ccncc4)nc4ccccc34)ccc21 [Compound 33],+ (“+” equals >25 μM)
13,Cc1c(-c2ccncc2)nc(Nc2ccc3nc(C4CC4)sc3c2)c2cccnc12 [Compound 333],+++ (“+++” equals ≤1 μM)
14,Fc1ccc(Nc2nc(-c3ccncc3)nc3ccccc23)cc1 [Compound 181],+++ (“+++” equals ≤1 μM)
15,Fc1cc(Nc2nc(-c3ccncc3)nc3ccccc23)cc2cc[nH]c12 [Compound 71],+++ (“+++” equals ≤1 μM)
16,c1cc(-c2cc3cnccc3c(Nc3ccc4nc(C5CC5)sc4c3)n2)ccn1 [Compound 398],+++ (“+++” equals ≤1 μM)
17,O=C1Cc2cc(Nc3nc(-c4ccncc4)nc4ccccc34)ccc2N1 [Compound 40],++ (“++” equals between ≤25 μM and >1 μM)
18,CC(C)c1nc2ccc(Nc3nc(-c4ccncc4)nc4ncccc34)cc2s1 [Compound 130],+++ (“+++” equals ≤1 μM)
19,CC(C)(C)c1cc2cc(Nc3nc(-c4ccncc4)nc4ccncc34)ccc2[nH]1 [Compound 124],+++ (“+++” equals ≤1 μM)
20,COc1ccc(NC(=O)Cn2c(=O)n(-c3ccc(C)cc3)c(=O)c3ccccc32)cc1 [Compound 220],+ (“+” equals >25 μM)
21,Fc1ccc(Nc2nc(-c3cccnc3)nc3ccccc23)cc1F [Compound 196],+ (“+” equals >25 μM)
22,c1cc(-c2nc(Nc3ccc4c(c3)OCO4)c3cnccc3n2)ccn1 [Compound 123],++ (“++” equals between ≤25 μM and >1 μM)
